pIC50: −log10 of the molar value. Where only a bound is given, the exact number is not on record here.

This passage reports IC50 results from patent US8426447B2, “Spiro-tricyclic ring compounds as beta-secretase modulators and methods of use” (Amgen Inc., priority 2008, dated 2013).

Experiment [1] deals with T1, BACE1 (Homo sapiens, UniProt P56817). The experiment is described as follows: In Vitro Enzymatic BACE FRET (Fluorescence Resonance Energy Transfer) Assay. The note with it: read-out: BACE1 FRET assay; for IC50: Table III, IC50's in uM ranges. In kind it is biochemical. In a few lines: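 Buffer 0.05 M acetate pH 4.2 with 10% DMSO final and 100 uM genapol; reaction started with 50 nM FRET peptide substrate (fluorophore/quencher flanking BACE cleavage site), incubated one hour. Stopped with Tris buffer raising pH to neutrality, then fluorescence read.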

In experiment [2] the target is T1, BACE1. The experiment is described as follows: In Vitro BACE Cell-based Assay (HEK cell assay): Aβ40 in conditioned medium of cells stably expressing Amyloid Precursor Protein, sandwich ELISA. Particulars: read-out: HEK cell assay; for IC50: Table III, IC50's in uM ranges. In a few lines:
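APP-expressing cells were cultured 24 h in DMEM/10% FBS, then treated 24 h with compounds in 10-point dose response (top 100 μM or 10 μM; 0.1% DMSO final). Secreted Aβ40 was quantified by sandwich ELISA (pAb40 capture, biotinylated 6E10 detection, Europium TRF); IC50 from percent inhibition versus concentration.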

Where [3] appears, read: in vitro BACE FRET enzyme assay, IC50 class symbols.
Where [4] appears, read: HEK cell-based assay, Aβ40 in conditioned medium, IC50 class symbols.

T1 sequence (P56817 46-501, species assumed): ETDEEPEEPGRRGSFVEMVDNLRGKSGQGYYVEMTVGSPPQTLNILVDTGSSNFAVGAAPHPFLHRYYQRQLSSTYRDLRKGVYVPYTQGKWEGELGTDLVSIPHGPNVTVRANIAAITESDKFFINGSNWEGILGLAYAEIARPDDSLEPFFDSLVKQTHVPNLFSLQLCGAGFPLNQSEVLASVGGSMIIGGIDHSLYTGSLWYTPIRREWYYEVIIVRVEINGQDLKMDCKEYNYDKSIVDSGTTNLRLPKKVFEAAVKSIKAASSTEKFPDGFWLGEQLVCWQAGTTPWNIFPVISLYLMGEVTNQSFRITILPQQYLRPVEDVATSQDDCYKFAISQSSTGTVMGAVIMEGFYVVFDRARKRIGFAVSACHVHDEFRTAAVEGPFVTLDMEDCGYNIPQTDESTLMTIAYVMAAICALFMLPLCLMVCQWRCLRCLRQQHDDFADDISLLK

On to `CC(C)(O)Cc1ccc2c(c1)[C@]1(COC(N)=N1)c1cc(-c3cccnc3)ccc1O2` [compound 659], for which the pIC50 was 6.00 to 7.00 at BACE1 [1] (Table IV, class symbols) and 6.00 to 7.00 at BACE1 [2] (Table IV, class symbols).
Consider `CC(C)(F)COc1cnc2c(c1)[C@]1(COC(N)=N1)c1cc(-c3ccc(F)nc3)ccc1O2` [compound 451], for which the pIC50 on BACE1 [1] and on BACE1 [2] (HEK cells) was above 7.00 each time.
For `COC(=O)CN1CCN(c2cc3c(cn2)Oc2ccc(-c4cccnc4)cc2[C@@]32COC(N)=N2)CC1` [compound 438], the pIC50 on BACE1 [1] and on BACE1 [2] (HEK cells) was above 7.00 in each case.
With `NC1=N[C@@]2(CO1)c1cc(-c3cc(F)ccc3F)ccc1Oc1ncc(N3CCOCC3)cc12` [compound 461], the pIC50 at BACE1 [1] and at BACE1 [2] (HEK cells) was above 7.00 in each case.
With `NC1=N[C@]2(CO1)c1cc(-c3ccc(C(F)(F)F)cc3)ccc1Oc1ccc(-c3cncnc3)cc12` [compound 811], the pIC50 at BACE1 [1] (Table IV, class symbols) is above 7.00; at BACE1 [2] (Table IV, class symbols) it was 6.00 to 7.00.
For `NC1=N[C@]2(CO1)c1cc(Br)ccc1Oc1ccc(Cl)nc12` [compound 856], in that order: below 5.30 and below 5.30.
Take `CC(C)(C)COc1ccc2c(c1)[C@]1(COC(N)=N1)c1cc(-c3csc(N4CCCC4)n3)ccc1O2` [compound 215]: the IC50 at BACE1 [1] was 1 to 5 µM; at BACE1 [2], above 5 µM.
Consider `NC1=N[C@@]2(CO1)c1cc(-c3cccnc3)ccc1Oc1c(F)cc(OCC(=O)C3CC3)cc12` [compound 387], for which the pIC50 at BACE1 [1] (setting [3]) and at BACE1 [2] (setting [4]) was above 7.00 each time.
Consider `NC1=N[C@@]2(CO1)c1cc(-c3cncnc3)ccc1Oc1ccc([C@@H]3CCOC3)cc12` [compound 420], for which the pIC50 is above 7.00 on BACE1 [1] and 6.00 to 7.00 at BACE1 [2] (HEK cells).
In the case of `CC1(C)CN(c2ccc3c(c2)[C@]2(COC(N)=N2)c2cc(-c4cncnc4)ccc2O3)C1` [compound 561], the pIC50 at BACE1 [1] (Table IV, class symbols) was above 7.00; at BACE1 [2] (Table IV, class symbols), above 7.00.
For the compound `Cc1ccc(-c2ccc3c(c2)[C@]2(COC(N)=N2)c2cc(OCC(C)(C)C)ccc2O3)cn1` [compound 786], the pIC50 at BACE1 [1] and on BACE1 [2] was 6.00 to 7.00 in each case.
On to `NC1=N[C@@]2(CO1)c1cc(-c3cccnc3)ccc1Oc1cnc(N3CCC4(CC3)OCCO4)cc12` [compound 443], for which the pIC50 on BACE1 [1] and on BACE1 [2] (HEK cells) was above 7.00 in each case.
For `NC1=N[C@@]2(CO1)c1cc(C#CC3CC3)ccc1Oc1ccc(Oc3ccccn3)cc12` [compound 211], the IC50 was in the range of 0.1 to 1 µM at BACE1 [1] and 1 to 5 µM at BACE1 [2].
On to `CC1(C)CC1c1cc2c(cn1)Oc1ccc(-c3cccnc3)cc1[C@]21COC(N)=N1` (some centres unmarked) [compound 677], for which the figures for the pIC50 on BACE1 [1] and at BACE1 [2] were above 7.00 and 6.00 to 7.00, respectively.
Consider `NC1=N[C@@]2(CO1)c1cc(Br)ccc1Oc1ccc(Cl)nc12` [compound 855], for which the pIC50 is below 5.30 on BACE1 [1] (Table IV, class symbols) and below 5.30 at BACE1 [2] (Table IV, class symbols).
Take `CC(C)(C#N)COc1cnc2c(c1)[C@]1(COC(N)=N1)c1cc(-c3ccccc3)ccc1O2` [compound 409]: the pIC50 at BACE1 [1] (setting [3]) is above 7.00; at BACE1 [2] (setting [4]), 6.00 to 7.00.
For `COc1ccc2c(c1)[C@]1(COC(N)=N1)c1cc(Br)cc(F)c1O2` [compound 377], in that order: below 5.30 and 5.30 to 6.00.
`NC1=N[C@]2(CO1)c1cc(CCCCO)ccc1Oc1ccc(-c3cccnc3)cc12` [compound 194]: the IC50 on BACE1 [1] and on BACE1 [2] was below 0.1 µM throughout.
On to `NC1=N[C@@]2(CO1)c1cc(-c3cc(Cl)ccc3F)ccc1Oc1cnc(C3=CCOCC3)cc12` [compound 424], for which the pIC50 at BACE1 [1] and at BACE1 [2] (HEK cells) was above 7.00 in each case.
For the compound `CCCOc1cc2c(cc1F)Oc1ccc(-c3cccnc3)cc1[C@]21COC(N)=N1` [compound 939], the pIC50 on BACE1 [1] and at BACE1 [2] was 6.00 to 7.00 each time.
Take `CC(C)(C)COc1ccc2c(c1)[C@]1(COC(N)=N1)c1cc(-c3cnc4ccccn34)ccc1O2` [compound 975]: the pIC50 at BACE1 [1] and at BACE1 [2] was 6.00 to 7.00 each time.
Consider `CCCOc1cc2c(cc1F)Oc1ccc(-c3ccc(F)nc3)cc1[C@@]21COC(N)=N1` [compound 920], for which the pIC50 at BACE1 [1] (Table IV, class symbols) was above 7.00; on BACE1 [2] (Table IV, class symbols), 6.00 to 7.00.
As for `CC(C)(C)OC(=O)/C=C/c1ccc2c(c1)[C@]1(COC(N)=N1)c1cc(Br)ccc1O2` [compound 996], the pIC50 at BACE1 [1] and at BACE1 [2] was below 5.30 each time.
Regarding `CC(C)(C)COc1ccc2c(c1)[C@@]1(COC(N)=N1)c1cc(-c3ccc(F)nc3)cnc1O2` [compound 951], the pIC50 at BACE1 [1] and on BACE1 [2] was above 7.00 each time.
For `COc1cc2c(cc1F)Oc1ccc(-c3cncnc3)cc1[C@]21COC(N)=N1` [154a], the IC50 on BACE1 [1] and at BACE1 [2] was above 5 µM each time.
As to `CC(C)(F)COc1cc(F)c2c(c1)[C@]1(COC(N)=N1)c1cc(-c3cccnc3)ccc1O2` [compound 381], the pIC50 on BACE1 [1] (setting [3]) and at BACE1 [2] (setting [4]) was above 7.00 in each case.
Take `COc1ccc2c(c1)[C@]1(COC(N)=N1)c1cc(NC(=O)[C@H](C)OC)ccc1O2` [compound 535]: the pIC50 on BACE1 [1] (Table IV, class symbols) was 5.30 to 6.00; at BACE1 [2] (Table IV, class symbols), 5.30 to 6.00.
For `COc1ccc2c(c1)[C@@]1(N=C(N)O[C@H]1C)c1cc(-c3cncnc3)ccc1O2` (single isomer, unassigned) [Example 125b], the IC50 on BACE1 [1] and at BACE1 [2] was 0.1 to 1 µM in each case.
In the case of `CCCOc1cc2c(cc1F)Oc1ccc(-c3ccc(F)nc3)cc1[C@]21COC(N)=N1` [compound 921], the pIC50 at BACE1 [1] (Table IV, class symbols) is 6.00 to 7.00; at BACE1 [2] (Table IV, class symbols) it was 5.30 to 6.00.
`NC1=N[C@@]2(CO1)c1cc(-c3cccnc3)ccc1Oc1ncccc12` [compound 594]: the pIC50 on BACE1 [1] (Table IV, class symbols) is below 5.30; at BACE1 [2] (Table IV, class symbols), below 5.30.
Turning to `CC(C)(C)COc1ccc2c(c1)[C@]1(COC(N)=N1)c1cc(-c3ccccc3)ccc1O2` [Example 85, (4S)-2′-(2,2-dimethylpropoxy)-7′-phenylspiro[1,3-oxazole-4,9′-xanthen]-2-amine], the pIC50 on BACE1 [1] (Table II) was above 7.00; on BACE1 [2] (Table II, Aβ40, 24 h incubation), 5.30 to 6.00.
On to `CC(C)(C)C#Cc1ccc2c(c1)[C@]1(COC(N)=N1)c1cc(-c3cccnc3)cnc1O2` [compound 896], for which the pIC50 on BACE1 [1] (Table IV, class symbols) is 6.00 to 7.00; on BACE1 [2] (Table IV, class symbols), 5.30 to 6.00.
`NC1=N[C@]2(CO1)c1cc(-c3ccc(OC(F)(F)F)cc3)ccc1Oc1ccc(-c3cncnc3)cc12` [compound 840]: the pIC50 on BACE1 [1] (Table IV, class symbols) was above 7.00; at BACE1 [2] (Table IV, class symbols) it was 6.00 to 7.00.
With `CC1(COc2cnc3c(c2)[C@]2(COC(N)=N2)c2cc(-c4ccccc4Cl)ccc2O3)COC1` [compound 414], the pIC50 at BACE1 [1] (setting [3]) was above 7.00; at BACE1 [2] (setting [4]), 6.00 to 7.00.
Regarding `CC(C)(C)COc1ccc2c(c1)[C@]1(COC(N)=N1)c1ccccc1O2` [compound 655], the pIC50 on BACE1 [1] (Table IV, class symbols) is 5.30 to 6.00; on BACE1 [2] (Table IV, class symbols), below 5.30.
With `COc1ccc2c(c1)[C@]1(COC(N)=N1)c1cc(OC)cnc1O2` [compound 541], the pIC50 at BACE1 [1] (Table IV, class symbols) was below 5.30; at BACE1 [2] (Table IV, class symbols), 5.30 to 6.00.
On to `CC(C)(C)COc1ccc2c(c1)[C@]1(COC(N)=N1)c1cc(C(=O)N3CCCC3)ccc1O2` [218b], for which the IC50 on BACE1 [1] and at BACE1 [2] was 0.1 to 1 µM throughout.
With `CC(C)(C)CCOc1nccc2c1[C@]1(COC(N)=N1)c1cc(-c3cccnc3)ccc1O2` [compound 932], the pIC50 at BACE1 [1] and on BACE1 [2] was 6.00 to 7.00 each time.
`CC(C)(C)COc1ccc2c(c1)[C@]1(COC(N)=N1)c1cc(-c3cncs3)ccc1O2` [compound 971]: the results for the pIC50 on BACE1 [1] and on BACE1 [2] were above 7.00 and 5.30 to 6.00, respectively.
Consider `NC1=N[C@@]2(CO1)c1cc(-c3cncnc3)ccc1Oc1cccnc12` [compound 525], for which the pIC50 at BACE1 [1] and on BACE1 [2] (HEK cells) was below 5.30 in each case.
`NC1=N[C@]2(CO1)c1cnccc1Oc1ccc(-c3cccnc3)cc12` [compound 557]: the pIC50 on BACE1 [1] (Table IV, class symbols) is below 5.30; on BACE1 [2] (Table IV, class symbols), 5.30 to 6.00.
For `CC(C)(C)C#Cc1cc2c(cn1)Oc1ccc(-c3cccnc3)cc1[C@@]21COC(N)=N1` [compound 845], in that order: above 7.00 and above 7.00.
For the compound `NC1=N[C@]2(CO1)c1cc(C#CC3(O)CCC3)ccc1Oc1ccc(-c3cccnc3)cc12` [compound 942], the pIC50 at BACE1 [1] and at BACE1 [2] was above 7.00 throughout.
`CC1(C)CC(c2cc3c(cc2F)Oc2ccc(-c4cncnc4)cc2[C@@]32COC(N)=N2)=CC(=O)O1` [compound 524]: the pIC50 at BACE1 [1] and on BACE1 [2] (HEK cells) was above 7.00 in each case.
With `CC(C)C[C@@H]1CN(c2ccc3c(c2)[C@]2(COC(N)=N2)c2cc(-c4cncnc4)ccc2O3)CCO1` [compound 422], the pIC50 at BACE1 [1] and at BACE1 [2] (HEK cells) was 6.00 to 7.00 in each case.
For the compound `NC1=N[C@@]2(CO1)c1cc(-c3cccnc3)ccc1Oc1ncc(C3=CCOCC3)cc12` [compound 664], the pIC50 at BACE1 [1] and at BACE1 [2] was above 7.00 in each case.
For `NC1=N[C@]2(CO1)c1cc(Oc3ccccn3)ccc1Oc1ccc(-c3cccnc3)cc12` [compound 207], the IC50 at BACE1 [1] and on BACE1 [2] was 0.1 to 1 µM throughout.
Take `COC1CN(c2cnc3c(c2)[C@]2(COC(N)=N2)c2cc(-c4cc(F)ccc4F)ccc2O3)C1` [compound 456]: the pIC50 at BACE1 [1] and on BACE1 [2] (HEK cells) was above 7.00 throughout.
Consider `NC1=N[C@]2(CO1)c1cc(OCC(O)(C(F)(F)F)C(F)(F)F)ccc1Oc1ccc(-c3cccnc3)cc12` [compound 894], for which the pIC50 at BACE1 [1] (Table IV, class symbols) is above 7.00; on BACE1 [2] (Table IV, class symbols) it was 6.00 to 7.00.
